“Also recorded” adds a separate entry of the source. Blank lines part the entries; values can stand above or below the substance they belong to.
Columns and labels:
Type in all cases: physicochemical
[1] = Solubility of precursor in organic solvents; conditions: for Solubility in methanol: 0.5 g in 5 ml of methanol; for Solubility in n-butyl acetate: 0.5 g in 5 ml of n-butyl acetate
Method: To evaluate solubility of precursors required in introducing the precursors in liquid phase for the deposition of thin films, the precursor Ti(eip)2 prepared in Example 11 and the precursor Ti(2meip)2 prepared in Example 12 were dissolved in methanol and n-butyl acetate, respectively. […] In contrast, 0.5 g of the precursor Ti(2meip)2 containing asymmetric carbons on its ligand was soluble in both methanol and n-butyl acetate.

[2] = Residue amount by thermal gravimetric analysis (TGA); conditions: for Residue amount: TGA, atmospheric pressure, N2 20 ml/min, residual weight at 550° C.; for Residues after being vaporized: in words
Method: (§1) The physical properties set forth in Tables 1 and 2 were measured by the following method: the melting point and vaporization temperature were measured from endothermic peaks of TG-DSC curves. However, the values indicated by the symbol * in Table 1 were measured by a melting point-measuring device, because the heat absorption by vaporization occurred along with the melting of the precursors during the measurement. The residue amounts were measured by thermal gravimetric analysis (TGA) under atmospheric pressure (N2, 20 ml/min) and recorded as residual weight of the precursors at 550° C.

[3] = Moisture proof of precursor (left to stand in air, NMR analysis); conditions: left to stand in air for three months or more
Method: 1.0 g of the precursor Ti(eip)2 prepared in Example 11 and 1.0 9 of the precursor Ti(2meip)2 prepared in Example 12 were placed in vials, respectively, and left to stand in air for three months or more. The analysis by NMR of the precursors was then carried out.

[4] = Vaporization temperature from endothermic peaks of TG-DSC curves; conditions: for Vaporization temp.: endothermic peak of TG-DSC curve
Method: as §1
(§2) TG-DSC analysis for the precursor Ti(eip)2 according to Example 11 and the precursor Ti(2meip)2 according to Example 12 was carried out under atmospheric pressure in nitrogen gas or in air, and under a reduced pressure (1.3 mbar) using Netzsch STA 449C equipment. In this analysis, the precursors were heated to 550° C. at a scanning rate of 10° C./min in nitrogen gas of a flow rate of 20 ml/min, or in air of a flow rate of 30 ml/min.
(§3) (see, FIG. 1b). […] This difference is due to that Ti(2meip)2 has a relatively weak Ti-N bond compared with a Ti-O bond and has a homoleptic structure.

[5] = TG-DSC analysis in air (thermal decomposition); conditions: for Thermal decomposition behaviour (exothermic peak): in words
Method: as §2, §3

[6] = Vaporization rates according to temperature by thermogravimetric analysis (FIG. 4); conditions: vs Ti(mpd)(thd)2, Ti(thd)2(O-iPr)2, Ba(methd)2, Sr(methd)2
Text: Moreover, vaporization rates of the precursor Ti(2meip)2 was compared to that of the commercial precursors Ti(mpd)(thd)2, Ti(thd)2 (O-iPr)2, Ba(methd)2 and Sr(methd)2 The results are shown in FIG. 4.

Substance: Titanium bis[2,6-dimethyl-5-(1-methylethoxy)imino-3-heptanoate] [Ti(26dm1meih)2]
- Residue amount ([2]; Table 1): 3.6%
- Vaporization temp. ([4]; Table 1): 285 °C

Substance: Titanium bis[2,2-dimethyl-5-(2-methylethoxy)imino-3-heptanoate] [Ti(22dm2meih)2]
- Enhanced solubility over the precursor Ti(2meip)2 ([1]; relative to Ti(2meip)2): 20%
- Residue amount ([2]; Table 1): 0.5%
- Residues after being vaporized [2]: no residues
- Vaporization temp. ([4]; Table 1): 287 °C
- Temperature at which the precursor is vaporized ([4]; atmospheric pressure / nitrogen atmosphere, without thermal decomposition): 287 °C

Substance: Titanium bis[4-(1,1-dimethylethoxy)imino-2-pentanoate] [Ti(1deip)2]
- Residue amount ([2]; Table 1): 13.7%
- Vaporization temp. ([4]; Table 1): 290 °C

Substance: Strontium bis[1-methoxyethoxy-2,2,6,6-tetramethyl-3,5-heptanedionate] [Sr(methd)2, reference compound]
- Residue amount ([2]; Table 2, prior art precursors): 3.1%
- Vaporization temp. ([4]; Table 2, prior art precursors): 389 °C

Substance: Titanium bis[2,2-dimethyl-5-(ethoxy)imino-3-heptanoate] [Ti(22dmeih)2]
- Residue amount ([2]; Table 1): 10.6%
- Vaporization temp. ([4]; Table 1): 307 °C

Substance: Titanium bis[4-(1-ethylethoxy)imino-2-pentanoate] [Ti(1eeip)2]
- Residue amount ([2]; Table 1): 7.6%
- Vaporization temp. ([4]; Table 1): 303 °C

Substance: Barium bis[1-methoxyethoxy-2,2,6,6-tetramethyl-3,5-heptanedionate] [Ba(methd)2, reference compound]
- Residue amount ([2]; Table 2, prior art precursors): 8.3%
- Vaporization temp. ([4]; Table 2, prior art precursors): 391 °C

Substance: Titanium [2-methyl-2,4-dioxy-pentane]-bis[(2,2,6,6-tetramethyl-3,5-heptanedionate)] [Ti(mpd)(thd)2, reference compound]
- Residue amount ([2]; Table 2, prior art precursors): <0.5%
- Vaporization temp. ([4]; Table 2, prior art precursors): 248 °C
- Thermal decomposition behaviour (exothermic peak) [5]: weak exothermic peak over a wide range of temperature

Substance: Titanium bis[2,6-dimethyl-5-(2-methylethoxy)imino-3-heptanoate] [Ti(26dm2meih)2]
- Residue amount ([2]; Table 1): 8.3%
- Vaporization temp. ([4]; Table 1): 283 °C

Continued, in another order:

- Solubility in methanol [1]: soluble
- Solubility in n-butyl acetate [1]: insoluble
- Residue after evaporation [2]: about 8%
- Residue amount ([2]; Table 1): 8.0%
- Stability on standing in air (NMR) [3]: no peaks of non-coordinated ligands
- Vaporization temp. ([4]; Table 1): 323 °C
Substance: Titanium bis[4-(ethoxy)imino-2-pentanoate] [Ti(eip)2]

- Residue amount ([2]; Table 1): 3.3%
- Vaporization temp. ([4]; Table 1): 295 °C
Substance: Titanium bis[4-(1-methylethoxy)imino-2-pentanoate] [Ti(1meip)2]

- Residue amount ([2]; Table 2, prior art precursors): 7%
- Vaporization temp. ([4]; Table 2, prior art precursors): 240 °C
Substance: Titanium bis(iso-propoxide)bis[(2,2,6,6-tetramethyl-3,5-heptanedionate)] [Ti(OiPr)2(thd)2, reference compound]
- Thermal decomposition behaviour (exothermic peak) [5]: weak exothermic peak over a wide range of temperature

- Solubility in methanol [1]: soluble
- Solubility in n-butyl acetate [1]: soluble
- Vapor pressure at the respective temperatures compared to the commercial precursors [6]: low in their vapor pressure
- Residue amount ([2]; Table 1): <0.5%
- Residues after being vaporized [2]: no residues
- Vaporization temp. ([4]; Table 1): 290 °C
- Thermal decomposition, exothermic peak temperature ([5]; TG-DSC in air, 30 ml/min, 10° C./min): about 315 °C
Substance: Titanium bis[4-(2-methylethoxy)imino-2-pentanoate] [Ti(2meip)2]
- Stability on standing in air (NMR) [3]: no peaks of non-coordinated ligands; also recorded: not structurally changed

- Residue amount ([2]; Table 1): 26.6%
Substance: Titanium bis[4-(n-propoxy)imino-2-pentanoate] [Ti(pip)2]

Source: US20020058843A1, “Novel group IV metal precursors and a method of chemical vapor deposition using the same” (priority 2000, published 2002)
